Patent publication US20250049033A1, “PESTICIDALLY ACTIVE PYRIDAZINONE COMPOUNDS” (SYNGENTA CROP PROTECTION AG, priority 2021, published 2025)

Key:
Format in all cases: in vivo
Chilo suppressalis = test: Activity against Chilo suppressalis (striped rice stemborer), artificial diet, L2 larvae; settings: 144 h, application rate 200 ppm, 6 days after infestation, vs untreated, read-out: control in at least one of the three categories (mortality, anti-feedant effect, or growth inhibition)
Experimental: Example B1: Activity Against Chilo suppressalis (Striped Rice Stemborer)
24-well microtiter plates with artificial diet were treated with aqueous test solutions prepared from 10′000 ppm DMSO stock solutions by pipetting. After drying, the plates were infested with L2 larvae (6-8 per well). The samples were assessed for mortality, anti-feeding effect, and growth inhibition in comparison to untreated samples 6 days after infestation. Control of Chilo suppressalis by a test sample is given when at least one of the categories mortality, anti-feedant effect, and growth inhibition is higher than the untreated sample.

Diabrotica balteata = test: Activity against Diabrotica balteata (corn root worm), maize sprouts, L2 larvae; settings: 96 h, application rate 200 ppm, 4 days after infestation, vs untreated, read-out: control in at least one of the two categories (mortality or growth inhibition)
Experimental: Example B2: Activity Against Diabrotica balteata (Corn Root Worm)
Maize sprouts placed onto an agar layer in 24-well microtiter plates were treated with aqueous test solutions prepared from 10′000 ppm DMSO stock solutions by spraying. After drying, the plates were infested with L2 larvae (6 to 10 per well). The samples were assessed for mortality and growth inhibition in comparison to untreated samples 4 days after infestation.

Euschistus heros = test: Activity against Euschistus heros (neotropical brown stink bug), soybean leaves, N2 nymphs; settings: 120 h, application rate 200 ppm, 5 days after infestation, vs untreated, read-out: effect in at least one of the two categories (mortality or growth inhibition)
Experimental: Example B3: Activity Against Euschistus heros (Neotropical Brown Stink Bug)
Soybean leaves on agar in 24-well microtiter plates were sprayed with aqueous test solutions prepared from 10′000 ppm DMSO stock solutions. After drying the leaves were infested with N2 nymphs. The samples were assessed for mortality and growth inhibition in comparison to untreated samples 5 days after infestation.

Myzus persicae [1] = test: Activity against Myzus persicae (green peach aphid), feeding/contact activity; settings: foliar, 144 h, application rate 200 ppm, 6 days after infestation, sunflower leaf discs, mixed ages
Experimental: Example B5: Activity Against Myzus persicae (Green Peach Aphid). Feeding/Contact Activity
Sunflower leaf discs were placed onto agar in a 24-well microtiter plate and sprayed with aqueous test solutions prepared from 10′000 ppm DMSO stock solutions. After drying, the leaf discs were infested with an aphid population of mixed ages. The samples were assessed for mortality 6 days after infestation.

Myzus persicae [2] = test: Activity against Myzus persicae (green peach aphid), intrinsic activity; settings: 120 h, test rate 12 ppm, 5 days after infestation, sucrose solution through Parafilm
From the text: Example B6: Activity Against Myzus persicae (Green Peach Aphid). Intrinsic Activity
Test compounds prepared from 10′000 ppm DMSO stock solutions were applied by pipette into 24-well microtiter plates and mixed with sucrose solution. The plates were closed with a stretched Parafilm. A plastic stencil with 24 holes was placed onto the plate and infested pea seedlings were placed directly on the Parafilm. The infested plate was closed with a gel blotting paper and another plastic stencil and then turned upside down. The samples were assessed for mortality 5 days after infestation.

Plutella xylostella = test: Activity against Plutella xylostella (diamond back moth), artificial diet, eggs; settings: 192 h, application rate 200 ppm, 8 days after infestation, vs untreated, read-out: control in at least one of the two categories (mortality or growth inhibition)
Experimental: Example B7: Activity Against Plutella xylostella (Diamond Back Moth)
24-well microtiter plates with artificial diet were treated with aqueous test solutions prepared from 10′000 ppm DMSO stock solutions by pipetting. After drying, Plutella eggs were pipetted through a plastic stencil onto a gel blotting paper and the plate was closed with it. The samples were assessed for mortality and growth inhibition in comparison to untreated samples 8 days after infestation. The following compounds gave an effect of at least 80% control in at least one of the two categories (mortality or growth inhibition) at an application rate of 200 ppm: P1, P2, P3, P4, P6, P7, P8, P9, P10, P11, P12, P13, P14, P15, P16, P17, P18, P19, P20, P21, P22, P23, P24, P25, P26, P27.

Spodoptera littoralis = test: Activity against Spodoptera littoralis (Egyptian cotton leaf worm), cotton leaf discs, L1 larvae; settings: foliar, 72 h, application rate 200 ppm, 3 days after infestation, vs untreated, read-out: control in at least one of the three categories (mortality, anti-feedant effect, or growth inhibition)
Experimental: Example B8: Activity Against Spodoptera littoralis (Egyptian Cotton Leaf Worm)
Cotton leaf discs were placed onto agar in 24-well microtiter plates and sprayed with aqueous test solutions prepared from 10′000 ppm DMSO stock solutions. After drying the leaf discs were infested with five L1 larvae. The samples were assessed for mortality, anti-feeding effect, and growth inhibition in comparison to untreated samples 3 days after infestation. Control of Spodoptera littoralis by a test sample is given when at least one of the categories mortality, anti-feedant effect, and growth inhibition is higher than the untreated sample.

Tetranychus urticae = test: Activity against Tetranychus urticae (two-spotted spider mite), feeding/contact activity; settings: foliar, 192 h
Experimental: Example B9: Activity Against Tetranychus urticae (Two-Spotted Spider Mite). Feeding/Contact Activity
Bean leaf discs on agar in 24-well microtiter plates were sprayed with aqueous test solutions prepared from 10′000 ppm DMSO stock solutions. After drying the leaf discs were infested with a mite population of mixed ages. The samples were assessed for mortality on mixed population (mobile stages) 8 days after infestation.

[3] = test system: Frankliniella occidentalis; test: Activity against Frankliniella occidentalis (western flower thrips), feeding/contact activity; settings: foliar, 168 h, application rate 200 ppm, 7 days after infestation, sunflower leaf discs, mixed ages
Experimental: Example B4: Activity Against Frankliniella occidentalis (Western Flower Thrips). Feeding/Contact Activity
Sunflower leaf discs were placed on agar in 24-well microtiter plates and sprayed with aqueous test solutions prepared from […] stock solutions. After drying the leaf discs were infested with a Frankliniella population of mixed ages. The samples were assessed for mortality 7 days after infestation.

C[C@@H](c1nccnc1-c1ccc(=O)n(C)n1)N(C)c1ncnc2c(C(F)(F)F)cc(Cl)cc12 (single isomer, unassigned) [P27]
≥ 80%: percent control (mortality, anti-feedant effect or growth inhibition) at 200 ppm (Chilo suppressalis) | percent control (mortality or growth inhibition) at 200 ppm (Diabrotica balteata) | percent effect (mortality or growth inhibition) at 200 ppm (Euschistus heros) | mortality at 200 ppm (Myzus persicae [1]) | mortality at 12 ppm (Myzus persicae [2]) | percent control (mortality or growth inhibition) at 200 ppm (Plutella xylostella) | percent control (mortality, anti-feedant effect or growth inhibition) at 200 ppm (Spodoptera littoralis) | mortality at 200 ppm (Tetranychus urticae)

C[C@@H](c1ncnn1-c1ccc(=O)n(C)n1)N(C)c1ncnc2c(C(F)(F)F)cc(Cl)cc12 [P6, 6-[5-[(1S)-1-[[6-chloro-8-(trifluoro-methyl)quinazolin-4-yl]-methyl-amino]ethyl]-1,2,4-triazol-1-yl]-2-methyl-pyr-idazin-3-one]
≥ 80%: percent control (mortality, anti-feedant effect or growth inhibition) at 200 ppm (Chilo suppressalis) | percent control (mortality or growth inhibition) at 200 ppm (Diabrotica balteata) | percent effect (mortality or growth inhibition) at 200 ppm (Euschistus heros) | mortality at 200 ppm (Myzus persicae [1]) | mortality at 12 ppm (Myzus persicae [2]) | percent control (mortality or growth inhibition) at 200 ppm (Plutella xylostella) | percent control (mortality, anti-feedant effect or growth inhibition) at 200 ppm (Spodoptera littoralis) | mortality at 200 ppm (Tetranychus urticae)

C[C@H](Nc1nc(=O)[nH]c2c(Cl)cc(C(F)(F)F)cc12)c1ncnn1-c1ccc(=O)n(C)n1 [P5, 8-chloro-4-[[(1S)-1-[2-(1-methyl-6-oxo-pyridazin-3-yl)-1,2,4-triazol-3-yl]ethyl]amino]-6-(trifluoromethyl)-1H-quinazolin-2-one]
≥ 80%: percent effect (mortality or growth inhibition) at 200 ppm (Euschistus heros) | mortality at 200 ppm [3]

CC(Nc1ncnc2c(C(F)(F)F)cc(C(F)(F)F)cc12)c1nccnc1-c1ccc(=O)n(C)n1 (stereo not shown) [P8, 6-[3-[1-[[6,8-bis-(trifluoromethyl)-quinazolin-4-yl]amino]ethyl]pyr-azin-2-yl]-2-meth-yl-pyridazin-3-one]
≥ 80%: percent control (mortality, anti-feedant effect or growth inhibition) at 200 ppm (Chilo suppressalis) | percent control (mortality or growth inhibition) at 200 ppm (Diabrotica balteata) | percent effect (mortality or growth inhibition) at 200 ppm (Euschistus heros) | mortality at 200 ppm (Myzus persicae [1]) | mortality at 12 ppm (Myzus persicae [2]) | percent control (mortality or growth inhibition) at 200 ppm (Plutella xylostella) | percent control (mortality, anti-feedant effect or growth inhibition) at 200 ppm (Spodoptera littoralis)

CCn1nc(-n2ncnc2[C@H](C)N(C)c2ncnc3c(Cl)cc(C(F)(F)F)cc23)ccc1=O [P22, 6-[5-[(1S)-1-[[8-chloro-6-(trifluoro-methyl)quinazolin-4-yl]-methyl-amino]ethyl]-1,2,4-triazol-1-yl]-2-ethyl-pyrid-azin-3-one]
≥ 80%: percent control (mortality, anti-feedant effect or growth inhibition) at 200 ppm (Chilo suppressalis) | percent control (mortality or growth inhibition) at 200 ppm (Diabrotica balteata) | percent effect (mortality or growth inhibition) at 200 ppm (Euschistus heros) | mortality at 200 ppm (Myzus persicae [1]) | mortality at 12 ppm (Myzus persicae [2]) | percent control (mortality or growth inhibition) at 200 ppm (Plutella xylostella) | percent control (mortality, anti-feedant effect or growth inhibition) at 200 ppm (Spodoptera littoralis)

CC(c1nccnc1-c1ccc(=O)n(C)n1)N(C)c1ncnc2c(Cl)cc(C(F)(F)F)cc12 (stereo not shown) [P12, 6-[3-[1-[[8-chloro-6-(trifluoromethyl)quinazolin-4-yl]-methyl-amino]ethyl]pyrazin-2-yl]-2-methyl-pyridazin-3-one]
≥ 80%: percent control (mortality, anti-feedant effect or growth inhibition) at 200 ppm (Chilo suppressalis) | percent control (mortality or growth inhibition) at 200 ppm (Diabrotica balteata) | percent effect (mortality or growth inhibition) at 200 ppm (Euschistus heros) | mortality at 200 ppm (Myzus persicae [1]) | mortality at 12 ppm (Myzus persicae [2]) | percent control (mortality or growth inhibition) at 200 ppm (Plutella xylostella) | percent control (mortality, anti-feedant effect or growth inhibition) at 200 ppm (Spodoptera littoralis)

CC(Nc1ncnc2c(Cl)cc(C(F)(F)F)cc12)c1nccnc1-c1ccc(=O)n(C)n1 (stereo not shown) [P13, 6-[3-[1-[[8-chloro-6-(trifluoromethyl)quinazolin-4-yl]amino]ethyl]pyrazin-2-yl]-2-methyl-pyridazin-3-one]
≥ 80%: percent control (mortality, anti-feedant effect or growth inhibition) at 200 ppm (Chilo suppressalis) | percent control (mortality or growth inhibition) at 200 ppm (Diabrotica balteata) | percent effect (mortality or growth inhibition) at 200 ppm (Euschistus heros) | mortality at 200 ppm (Myzus persicae [1]) | mortality at 12 ppm (Myzus persicae [2]) | percent control (mortality or growth inhibition) at 200 ppm (Plutella xylostella) | percent control (mortality, anti-feedant effect or growth inhibition) at 200 ppm (Spodoptera littoralis)
